According to patent publication US9969763B2, “1,2,3-triazole-tethered carbohydrate-di and tri lipidated cysteine conjugates useful as vaccine adjuvants and process for preparation thereof” (Council of Scientific and Industrial Research, priority 2015, dated 2018):
Where a SMILES comes first, the peptide text is derived from it. The star is where a group is joined. X1 = CCCCCCCCCCCCCCCC(=O)OCC(C*)OC(=O)CCCCCCCCCCCCCCC; Palmitoyl = CCCCCCCCCCCCCCCC(=O)*

What was measured:
[1] = tested on: cytokines IL-2, IL-12, IFN-γ, TNF-α, IL-10, IL-6; assay: Cytokine expression on immunization with OVA (ELISA); type: in vivo, BALB/c mice; settings: OVA antigen
Protocol: (§1) 13.1 Preparation and immunization of the vaccine: Male BALB/c mice (Procured from laboratory animal facility of National Institute of Nutrition, Hyderabad, IAEC No. IICT/Bio/fox/PG/1/02/2013) were immunized subcutaneously with different groups according to various concentrations of conjugates covered in examples 1-12, preferably 2 to 80 μg/dose, more preferably 6 to 50 μg/dose, most preferably 8 to 40 μg/dose, along with PBS (car no. TS1006, Himedia)and antigen control. A booster dose was given on 14th day and sacrificed 2 weeks after booster.
(§2) 1.2.2 Cytokine expression on immunization: ELISA was carried out by Opti Elisa Kit (cat no. 560485, BD biosciences, USA). Briefly, 96-Well plates were coated with capture antibody dissolved in coating buffer. Wells were blocked with PBS containing 0.05% Tween-20 for 1h at RT. After blocking, 100 μL/well of supernatant was added and incubated for overnight at 4° C. After washing, biotinylated secondary antibody was added along with enzyme. Plates were incubated for 1h at RT. Then plates were washed and substrate solution was added. The reaction was stopped and the absorbance was measured at 450 nm in ELISA reader (BioTek-Elx800).

Splenocytes [2] = assay: OVA stimulated splenocyte proliferation (MTT) in immunized mice; type: in vivo, BALB/c mice; settings: OVA antigen; mice immunized s.c., conjugates 2-80 μg, booster 14th day; MTT after 48 h
Protocol: as §1
(§3) 1.2.1 Proliferation of immune cells: Splenocytes were seeded into 96 well flat bottom microtiter plates having 1×10^5 cells/well in complete RPMI-1640 medium (cat no. AT028-1L, Himedia). Plates were incubated at 37° C., with 5% CO2 incubator. After 48 h of incubation 20 μl of Triazolyl blue Tetrazolium Bromide (MTT) (cat no. M2128, Sigma-Aldrich. St. Louis, Mo.) solution (5 mg/mL) was added to each well, incubated for next 4 h. Untransformed MTT was removed from each well by aspirating the supernatant (180 μL)and replaced with DMSO (Sigma-Aldrich, St. Louis, Mo.). The absorbance was read at 630 nm after 15 min.
All triazolyl adjuvant conjugates induced splenocyte proliferation responses at the dose of 2-80 μg.

Splenocytes [3] = assay: HBsAg stimulated splenocyte proliferation in immunized mice; type: in vivo, BALB/c mice; settings: HBsAg antigen; conjugates 2-80 μg
Protocol: as §3
Vaccine was formulated with Hepatitis B antigen (HBsAg, cat. No HBS-870-c, ProspecBio, Israel))alone or with various adjuvants like Pam3CSK4 and their analogues. The adjuvanticity induced by each of the vaccine is determined by antibody titre, cytokine production and proliferation of immune cells.
(§4) Male BALB/c mice were immunized with different groups according to various concentrations of (conjugates)preferably 2 to 80 μg/dose, more preferably 6 to 50 μg/dose, most preferably 8 to 40 μg/dose, along with PBS and HBsAg antigen control. A booster dose was given on 14th day and sacrificed 2 weeks after booster.
2.2.1 Proliferation of immune cells: Splenocyte proliferation was measured by the same method as described in Example 13 except that HBsAg antigen. […]

Human TLR-2 = molecular target: T1, Human TLR-2 (Homo sapiens, UniProt O60603); assay: Human TLR-2 reporter gene assay (NF-κB induction, SEAP); type: cell-based; settings: HEK-Blue hTLR2 cells, 24 h
T1 construct: host or cells: HEK-Blue hTLR2 cells (HEK293-derived reporter line)
Protocol: 2.2.4 Human TLR-2 reporter gene assays (NF-κB induction): The assay was performed as per the manufacturer's instructions. HEK-Blue™ hTLR2 cells (cat no. hkb-htlr2, Invivogen, USA, 25,000 cells per well) were harvested in HEK-Blue™ selection medium containing normocin treated with the compounds and the plate were incubated at 37° C. in 5% CO2 for 24 h. SEAP (secreted embryonic alkaline phosphatase) can be observed with naked eye and determined using a spectrophotometer at 620-655 nm.

rat RBCs = type: cell-based; settings: red cells of rat
Protocol: 2.2.7 Hemolytic assay: Different concentration of test compounds were tested with fixed volume concentration of rat RBCs. After incubation for 30 min the percentage of hemolysis was determined by comparing the absorbance (k=540 nm) of the supernatant with that of distilled water as positive control.

in vitro = type: cell-based; settings: rat, NRK-49F rat kidney cells
Protocol: 2.2.6 In vitro cytotoxicity evaluation by MTT assay: Rat kidney cell line NRK-49F (NCCS, Pune) was exposed to varying doses of test compounds in the range of […], to determine the toxicity after 48 h of incubation. The colorimetric MTT assay was used to evaluate cell viability which is determined based on reduction of MTT to blue formazan crystals by the mitochondrial succinate dehydrogenase enzymes of viable cells.

HBsAg antigen = assay: Antibody titre against HBsAg antigen (ELISA); type: in vivo, BALB/c mice; settings: 28th day; for IgG titer: serum anti-HBsAg; for IgG1 titer / IgG 2a titer: serum, HBsAg immunized mice
Protocol: (§5) 1.2.2 Antibody titre against OVA antigen: From the immunized mice retro-orbital sampling or retro-orbital blood was collected on 14th and 28th day before sacrifice. Serum was separated by centrifugation at 12,500 rpm for 5 min. Transferred to a clean centrifuge tube and store at −80 until used. The plates were coated with OVA (1 μg/well) in carbonate buffer. Plates were incubated at 4° C., overnight. They were then washed 3 times with PBS/Tween, and non-specific binding sites were blocked by adding 200 μl of blocking solution. Plates were incubated at room temperature for 1 h. Then 3 times wash is done, diluted standards and samples to desired concentrations in blocking solution were added to the plates. Incubate at 37° C. for 1 h or at 4° C., overnight. Plates were washed 3 times with PBS/Tween. Avidin-Horseradish Peroxidase (Av-HRP, cat no. 45210, Biolegend, USA) was diluted and added. Incubated at room temperature for 30 min. Plates were washed 3 times with PBS/Tween. Substrate was added, mix equal volumes of TMB Reagent A and B(cat no. 421101, Biolegend, USA) immediately prior to use. Plates were incubated at room temperature (4-30 min) for color development. Color reaction was stopped by adding 50 μl of stop solution. Optical density (OD) was read at 450 nm.
(§6) 1.2.3 Isotypes of antigen specific antibody: The plates were coated with diluted unlabeled capture antibody to a final concentration of 0.5-8 μg/ml. Plates were incubated at 4° C. overnight. They were then washed 3 times with PBS/Tween, and non-specific binding sites were blocked by adding 200 μl of blocking solution. Plates were incubated at room temperature for 1 h. Washing is done thrice, diluted standards and samples to desire concentrations in blocking solution were added to the plates. Incubate at room temperature for 2-4 h or at 4° C., overnight. Plates were washed 3 times with PBS/Tween. Detection antibodies were added 0.25-2 μg/ml in blocking buffer, followed by incubation at room temperature for 1 h. Plates were washed 3 times with PBS/Tween. Avidin-Horseradish Peroxidase (Av-HRP) was diluted and added. Incubated at room temperature for 30 min. Plates were washed 5 times with PBS/Tween. Substrate was added, mix equal volumes of TMB Reagent A and B immediately prior to use. Plates were incubated at room temperature (0.4-30 min) for color development. Color reaction was stopped by adding 50 μl of stop solution. Optical density (OD) was read at 450 nm.
as §4
2.2.3 Antibody titre against HBsAg antigen: Antibody titer was determined by the same method as described in the Example 13 except that HBsAg antigen.
Antibody titres IgG, IgG1 and IgG2a were measured by sandwich ELISA.

[4] = tested on: extracellular markers CD4, CD8, CD80, CD86, CD40; assay: Immunophenotyping, staining for extracellular markers (flow cytometry); type: cell-based
Protocol: 2.2.5 Immunophenotyping—Staining for extracellular markers: Staining was as per the manufacturer's protocol and run on a BD FACSVerse flow cytometer (cat nos. 557596, 553047, 560016 and 553723; BD Biosciences, USA). Compensation was established using BD Biosciences compensation beads. Post acquisition flow cytometry analysis was performed using FACS Suite software and data were represent in the mean fluorescence intensity values.

[5] = tested on: cytokines IL-2, IL-12, IFN-γ, TNF-α, IL-10, IL-6; assay: Cytokine expression on immunization with HBsAg (ELISA); type: in vivo, BALB/c mice; settings: HBsAg antigen
Protocol: as §2, §4
2.2.2 Cytokine expression on immunization: Cytokine expression was measured by the same method as described in the Example 13 except that HBsAg antigen.

OVA antigen = assay: Antibody titre against OVA antigen and isotypes (ELISA); type: in vivo, BALB/c mice; settings: 28th day; for IgG titer: serum anti-OVA; for IgG1 titer / IgG 2a titer: serum, OVA immunized mice
Protocol: as §1, §5, §6
IgG1 and IgG2a were measured by sandwich ELISA.

T1 sequence (O60603 21-784): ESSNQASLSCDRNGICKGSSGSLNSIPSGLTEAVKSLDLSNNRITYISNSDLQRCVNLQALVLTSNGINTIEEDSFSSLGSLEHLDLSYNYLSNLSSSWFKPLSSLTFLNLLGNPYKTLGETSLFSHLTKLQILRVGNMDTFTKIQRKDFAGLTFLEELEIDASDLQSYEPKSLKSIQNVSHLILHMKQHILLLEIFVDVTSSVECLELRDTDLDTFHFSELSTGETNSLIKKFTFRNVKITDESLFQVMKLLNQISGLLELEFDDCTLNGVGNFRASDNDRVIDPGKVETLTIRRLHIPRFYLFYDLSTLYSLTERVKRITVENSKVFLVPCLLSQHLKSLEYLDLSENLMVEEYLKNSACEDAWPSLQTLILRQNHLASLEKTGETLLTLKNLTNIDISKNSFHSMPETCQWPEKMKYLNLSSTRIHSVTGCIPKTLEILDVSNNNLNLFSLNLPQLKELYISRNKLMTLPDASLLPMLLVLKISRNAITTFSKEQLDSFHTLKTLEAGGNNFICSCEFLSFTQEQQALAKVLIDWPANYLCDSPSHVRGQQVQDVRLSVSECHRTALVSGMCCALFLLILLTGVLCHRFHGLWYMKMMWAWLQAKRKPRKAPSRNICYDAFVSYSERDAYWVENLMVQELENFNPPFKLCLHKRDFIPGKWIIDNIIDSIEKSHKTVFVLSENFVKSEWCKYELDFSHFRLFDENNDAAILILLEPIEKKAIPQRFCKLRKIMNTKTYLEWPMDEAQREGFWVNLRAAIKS

CCCCCCCCCCCCCCCC(=O)N[C@@H](CSCC(COC(=O)CCCCCCCCCCCCCCC)OC(=O)CCCCCCCCCCCCCCC)C(=O)N[C@@H](CO)C(=O)N[C@@H](CCCCN)C(=O)N[C@@H](CCCCN)C(=O)N[C@@H](CCCCN)C(=O)N[C@@H](CCCCN)C(=O)O (stereo partly shown) [Standard (VacciGrade Pam3Cys) control] (Palmitoyl-C(X1)SKKKK-OH; N-terminus and C-terminus assumed)
Serum cytokines IFN-γ [1]: 100 to 140 pg/mL
Serum cytokines IL-2 [1]: 100 to 150 pg/mL
Serum cytokines IL-6 [1]: 100 to 120 pg/mL
Serum cytokines IL-10 [1]: 180 to 220 pg/mL
Serum cytokines IL-12 [1]: 80 to 140 pg/mL
Serum cytokines TNF-α [1]: 150 to 200 pg/mL
Splenocyte proliferation (Splenocytes [2]): 200-350
Splenocyte proliferation (Splenocytes [3]): 250-500
TLR Ligand activity, SEAP Absorbance (655 nm) (Human TLR-2): 1.2-2
% Hemolysis (rat RBCs): 2-5%
viability at 48 h (in vitro): 95 to 100%
IgG titer (HBsAg antigen): 204800-819200
IgG1 titer (HBsAg antigen): 102400-409600
IgG 2a titer (HBsAg antigen): 204800-3276800
Immunophenotyping (MFI) CD4 [4]: 1400-3000 MFI
Immunophenotyping (MFI) CD8 [4]: 2000-4000 MFI
Immunophenotyping (MFI) CD40 [4]: 1000-2500 MFI
Immunophenotyping (MFI) CD80 [4]: 1600-2500 MFI
Immunophenotyping (MFI) CD86 [4]: 1200-2000 MFI
Serum cytokines IFN-γ [5]: 250 to 325 pg/mL
Serum cytokines IL-2 [5]: 250 to 300 pg/mL
Serum cytokines IL-6 [5]: 250 to 295 pg/mL
Serum cytokines IL-10 [5]: 325 to 475 pg/mL
Serum cytokines IL-12 [5]: 150 to 250 pg/mL
Serum cytokines TNF-α [5]: 275 to 400 pg/mL
IgG titer (OVA antigen): 102400-819200
IgG1 titer (OVA antigen): 102400-1638400
IgG 2a titer (OVA antigen): 102400-3276800

B1: OVA control: experimental weak antigen ovalbumin (cat no. A5503, Sigma-Aldrich) given alone as antigen control (protein, UniProt P01012 2-386, looked up)
Ovalbumin: GSIGAASMEFCFDVFKELKVHHANENIFYCPIAIMSALAMVYLGAKDSTRTQINKVVRFDKLPGFGDSIEAQCGTSVNVHSSLRDILNQITKPNDVYSFSLASRLYAEERYPILPEYLQCVKELYRGGLEPINFQTAADQARELINSWVESQTNGIIRNVLQPSSVDSQTAMVLVNAIVFKGLWEKAFKDEDTQAMPFRVTEQESKPVQMMYQIGLFRVASMASEKMKILELPFASGTMSMLVLLPDEVSGLEQLESIINFEKLTEWTSSNVMEERKIKVYLPRMKMEEKYNLTSVLMAMGITDVFSSSANLSGISSAESLKISQAVHAAHAEINEAGREVVGSAEAGVDAASVSEEFRADHPFLFCIKHIATNAVLFFGRCVSP
IgG titer (HBsAg antigen): 12800-51200
IgG1 titer (HBsAg antigen): 12800-102400
IgG 2a titer (HBsAg antigen): 12800-51200
IgG titer (OVA antigen): 6400-12800
IgG1 titer (OVA antigen): 6400-25600
IgG 2a titer (OVA antigen): 6400-12800
